According to publication PMC5218480 (PLoS ONE, 2017):

Tested on: MV-4-11 cells
Test: Gene expression microarray analysis (Affymetrix PrimeView) and GSEA
Type: cell-based, human
Design: RFU PODN (11730768_x_at) / Fold change /veh PODN (11730768_x_at) / RFU LINC00158 (11744669_a_at) / Fold change /veh LINC00158 (11744669_a_at) / RFU DUSP10 (11751237_a_at) / Fold change /veh DUSP10 (11751237_a_at) / RFU ID3 (11757404_x_at) / Fold change /veh ID3 (11757404_x_at) / RFU PLEKHG5 (11737974_s_at) / Fold change /veh PLEKHG5 (11737974_s_at) / RFU LRRC4B (11730491_at) / Fold change /veh LRRC4B (11730491_at) / RFU GIMAP4 (11747438_a_at) / Fold change /veh GIMAP4 (11747438_a_at) / RFU KRT8 (11758183_x_at) / Fold change /veh KRT8 (11758183_x_at) / RFU CNN1 (11734310_a_at) / Fold change /veh CNN1 (11734310_a_at) / RFU VPS37D (11726825_at) / Fold change /veh VPS37D (11726825_at) / RFU C10orf10 (11716522_x_at) / Fold change /veh C10orf10 (11716522_x_at) / RFU KIR2DL2 /// KIR2DL4 /// KIR2DL5A /// KIR2DL5B /// KIR2DS1 /// KIR2DS2 /// KIR2DS3 /// KIR2DS4 /// KIR3DL3 /// KIR3DL3 /// KIR3DS1 (11738374_at) / Fold change /veh KIR2DL2 /// KIR2DL4 /// KIR2DL5A /// KIR2DL5B /// KIR2DS1 /// KIR2DS2 /// KIR2DS3 /// KIR2DS4 /// KIR3DL3 /// KIR3DL3 /// KIR3DS1 (11738374_at) / RFU C1QL1 (11718748_at) / Fold change /veh C1QL1 (11718748_at) / RFU TMPRSS4 (11747572_a_at) / Fold change /veh TMPRSS4 (11747572_a_at) / RFU HAMP (11756126_x_at) / Fold change /veh HAMP (11756126_x_at) / RFU RNFT2 (11725882_a_at) / Fold change /veh RNFT2 (11725882_a_at) / RFU NR4A2 (11747474_a_at) / Fold change /veh NR4A2 (11747474_a_at) / RFU ABCC12 (11746883_a_at) / Fold change /veh ABCC12 (11746883_a_at) / RFU TMEM136 (11760407_x_at) / Fold change /veh TMEM136 (11760407_x_at) / RFU CLDN22 /// WWC2 (11732394_at) / Fold change /veh CLDN22 /// WWC2 (11732394_at) / RFU HLA-DPB1 (11760878_x_at) / Fold change /veh HLA-DPB1 (11760878_x_at) / RFU SPINT1 (11716480_a_at) / Fold change /veh SPINT1 (11716480_a_at) / RFU GAP43 (11754022_s_at) / Fold change /veh GAP43 (11754022_s_at) / RFU A4GNT (11735810_at) / Fold change /veh A4GNT (11735810_at) / RFU PRB3 (11715151_x_at) / Fold change /veh PRB3 (11715151_x_at) / RFU TUBB4B (11761932_at) / Fold change /veh TUBB4B (11761932_at) / RFU CAPN14 (11732068_a_at) / Fold change /veh CAPN14 (11732068_a_at) / RFU TMCC2 (11721928_a_at) / Fold change /veh TMCC2 (11721928_a_at) / RFU IRGQ (11745062_a_at) / Fold change /veh IRGQ (11745062_a_at) / RFU FAM174B (11720279_a_at) / Fold change /veh FAM174B (11720279_a_at) / RFU TMPRSS4 (11748680_a_at) / Fold change /veh TMPRSS4 (11748680_a_at) / RFU FAM212B (11763350_a_at) / Fold change /veh FAM212B (11763350_a_at) / RFU PLEKHG5 (11743358_a_at) / Fold change /veh PLEKHG5 (11743358_a_at) / RFU ZSCAN30 (11745921_a_at) / Fold change /veh ZSCAN30 (11745921_a_at) / RFU CMKLR1 (11741424_a_at) / Fold change /veh CMKLR1 (11741424_a_at) / RFU LOC101060620 /// MAPK8IP1 (11723275_at) / Fold change /veh LOC101060620 /// MAPK8IP1 (11723275_at) / RFU SPTSSB (11747773_x_at) / Fold change /veh SPTSSB (11747773_x_at) / RFU PRSS12 (11739890_at) / Fold change /veh PRSS12 (11739890_at) / RFU BIN1 (11741810_x_at) / Fold change /veh BIN1 (11741810_x_at) / RFU WNT11 (11732464_a_at) / Fold change /veh WNT11 (11732464_a_at) / RFU C10orf10 (11716521_a_at) / Fold change /veh C10orf10 (11716521_a_at) / RFU C5orf56 (11738089_at) / Fold change /veh C5orf56 (11738089_at) / RFU CYB561 (11721691_x_at) / Fold change /veh CYB561 (11721691_x_at) / RFU ANKRD19P (11752326_a_at) / Fold change /veh ANKRD19P (11752326_a_at) / RFU OR2T12 /// OR2T33 /// OR2T8 (11738714_s_at) / Fold change /veh OR2T12 /// OR2T33 /// OR2T8 (11738714_s_at) / RFU VCAN (11748164_a_at) / Fold change /veh VCAN (11748164_a_at) / RFU JSRP1 (11732532_at) / Fold change /veh JSRP1 (11732532_at) / RFU KRTAP10-11 (11738290_x_at) / Fold change /veh KRTAP10-11 (11738290_x_at) / RFU MYO3A (11730013_a_at) / Fold change /veh MYO3A (11730013_a_at) / RFU EBF3 (11725865_a_at) / Fold change /veh EBF3 (11725865_a_at) / RFU CAMK2N1 (11719241_x_at) / Fold change /veh CAMK2N1 (11719241_x_at) / RFU C5orf56 (11738088_a_at) / Fold change /veh C5orf56 (11738088_a_at) / RFU OLFML3 (11715873_a_at) / Fold change /veh OLFML3 (11715873_a_at) / RFU LOC100653217 /// NTM (11731650_a_at) / Fold change /veh LOC100653217 /// NTM (11731650_a_at) / RFU MAPK11 (11762145_a_at) / Fold change /veh MAPK11 (11762145_a_at) / RFU FIZ1 (11724087_x_at) / Fold change /veh FIZ1 (11724087_x_at) / RFU OASL (11726364_x_at) / Fold change /veh OASL (11726364_x_at) / RFU SOX15 (11748057_x_at) / Fold change /veh SOX15 (11748057_x_at) / RFU CD79A (11719716_a_at) / Fold change /veh CD79A (11719716_a_at) / RFU HIST1H1D (11736915_at) / Fold change /veh HIST1H1D (11736915_at) / RFU CASKIN2 (11723855_a_at) / Fold change /veh CASKIN2 (11723855_a_at) / RFU LOC730098 (11760151_x_at) / Fold change /veh LOC730098 (11760151_x_at) / RFU OR4N2 (11742367_at) / Fold change /veh OR4N2 (11742367_at) / RFU PRRT2 (11749266_a_at) / Fold change /veh PRRT2 (11749266_a_at) / RFU SNX32 (11753110_a_at) / Fold change /veh SNX32 (11753110_a_at) / RFU CDHR5 (11726645_a_at) / Fold change /veh CDHR5 (11726645_a_at) / RFU RCAN1 (11760418_a_at) / Fold change /veh RCAN1 (11760418_a_at) / RFU FAM167A (11723789_a_at) / Fold change /veh FAM167A (11723789_a_at) / RFU FAM26E (11764081_at) / Fold change /veh FAM26E (11764081_at) / RFU ISYNA1 (11749810_s_at) / Fold change /veh ISYNA1 (11749810_s_at) / RFU ACY1 (11761880_at) / Fold change /veh ACY1 (11761880_at) / RFU 11764098_at / Fold change /veh 11764098_at / RFU SAMD14 (11745864_x_at) / Fold change /veh SAMD14 (11745864_x_at) / RFU NPB (11741838_a_at) / Fold change /veh NPB (11741838_a_at) / RFU TMPRSS6 (11731388_a_at) / Fold change /veh TMPRSS6 (11731388_a_at) / RFU KRTAP10-2 (11738614_at) / Fold change /veh KRTAP10-2 (11738614_at) / RFU ARHGAP8 /// PRR5-ARHGAP8 (11727945_x_at) / Fold change /veh ARHGAP8 /// PRR5-ARHGAP8 (11727945_x_at) / RFU KRTAP5-7 /// NADSYN1 (11734609_at) / Fold change /veh KRTAP5-7 /// NADSYN1 (11734609_at) / RFU RASL12 (11751679_a_at) / Fold change /veh RASL12 (11751679_a_at) / RFU CDKN2B (11736163_a_at) / Fold change /veh CDKN2B (11736163_a_at) / RFU PRF1 (11729649_at) / Fold change /veh PRF1 (11729649_at) / RFU, ZNF638 /// ZNF638-IT1 / Fold change vs veh, ZNF638 /// ZNF638-IT1 / RFU, PANK3 / Fold change vs veh, PANK3 / RFU, SH3YL1 / Fold change vs veh, SH3YL1 / RFU, ZEB2 / Fold change vs veh, ZEB2 / RFU, NRIP1 / Fold change vs veh, NRIP1 / RFU, PTTG1IP / Fold change vs veh, PTTG1IP / RFU, CAPN2 / Fold change vs veh, CAPN2 / RFU, MED14 / Fold change vs veh, MED14 / RFU, SNORA58 / Fold change vs veh, SNORA58 / RFU, C1orf63 / Fold change vs veh, C1orf63 / RFU, LRRFIP1 / Fold change vs veh, LRRFIP1 / RFU, NDUFAF7 / Fold change vs veh, NDUFAF7 / RFU, SLC12A2 / Fold change vs veh, SLC12A2 / RFU, IBTK / Fold change vs veh, IBTK / RFU, ESF1 / Fold change vs veh, ESF1 / Fold change vs veh, TMEM50B / RFU, TAOK1 / Fold change vs veh, TAOK1 / RFU, ACBD3 / Fold change vs veh, ACBD3 / RFU, TMA16 / Fold change vs veh, TMA16 / RFU, RWDD3 / Fold change vs veh, RWDD3 / RFU, BCAT1 / Fold change vs veh, BCAT1 / RFU, EDEM3 / Fold change vs veh, EDEM3 / RFU, TMEM33 / Fold change vs veh, TMEM33 / RFU, WDR75 / Fold change vs veh, WDR75 / RFU, AHCTF1 / Fold change vs veh, AHCTF1 / RFU, TFRC / Fold change vs veh, TFRC / RFU, ZDHHC17 / Fold change vs veh, ZDHHC17 / RFU, NOM1 / Fold change vs veh, NOM1 / RFU, ARL8B / Fold change vs veh, ARL8B / RFU, ZBTB11 / Fold change vs veh, ZBTB11 / RFU, TAMM41 / Fold change vs veh, TAMM41 / RFU, KIAA1704 /// LOC100996395 / Fold change vs veh, KIAA1704 /// LOC100996395 / RFU, ING1 / Fold change vs veh, ING1 / RFU, TRMT61B / Fold change vs veh, TRMT61B / RFU, FUBP3 / Fold change vs veh, FUBP3 / RFU, TP53 / Fold change vs veh, TP53 / RFU, TNKS2 / Fold change vs veh, TNKS2 / RFU, ZFP14 / Fold change vs veh, ZFP14 / RFU, ACTR2 / Fold change vs veh, ACTR2 / RFU, PPP3R1 / Fold change vs veh, PPP3R1 / RFU, PIK3R1 / Fold change vs veh, PIK3R1 / RFU, HNRNPA1 / Fold change vs veh, HNRNPA1 / RFU, RNF170 / Fold change vs veh, RNF170 / RFU, ZNF28 / Fold change vs veh, ZNF28 / RFU, RNGTT / Fold change vs veh, RNGTT / RFU, OGT / Fold change vs veh, OGT / RFU, BRD1 / Fold change vs veh, BRD1 / RFU, MARS / Fold change vs veh, MARS / RFU, ZNF655 / Fold change vs veh, ZNF655 / RFU, FAHD1 / Fold change vs veh, FAHD1 / RFU, BDP1 / Fold change vs veh, BDP1 / RFU, LRRCC1 / Fold change vs veh, LRRCC1 / RFU, ARID1A / Fold change vs veh, ARID1A / RFU, ZNF146 / Fold change vs veh, ZNF146 / RFU, ZNF330 / Fold change vs veh, ZNF330 / RFU, GPN3 / Fold change vs veh, GPN3 / RFU, C9orf123 / Fold change vs veh, C9orf123 / RFU, N4BP2L2 / Fold change vs veh, N4BP2L2 / RFU, ARFIP1 / Fold change vs veh, ARFIP1 / RFU, FAM179B / Fold change vs veh, FAM179B / RFU, BCL10 / Fold change vs veh, BCL10 / RFU, UHRF1BP1L / Fold change vs veh, UHRF1BP1L / RFU, BET1 / Fold change vs veh, BET1 / RFU, CNOT2 / Fold change vs veh, CNOT2 / RFU, ZNF268 / Fold change vs veh, ZNF268 / Fold change vs veh, ZNF507 / RFU, DGCR2 / Fold change vs veh, DGCR2 / RFU, WDSUB1 / Fold change vs veh, WDSUB1 / Fold change vs veh, HSP90B1 /// MIR3652 / RFU, ADSS / Fold change vs veh, ADSS / RFU, GK / Fold change vs veh, GK / RFU, ZNF148 / Fold change vs veh, ZNF148 / RFU, TAF9 / Fold change vs veh, TAF9 / RFU, SLC1A5 / Fold change vs veh, SLC1A5 / RFU, SLMO2 / Fold change vs veh, SLMO2 / RFU, ABCC4 / Fold change vs veh, ABCC4 / RFU, LOC101060439 /// RAP1B / Fold change vs veh, LOC101060439 /// RAP1B / RFU, RFX7 / Fold change vs veh, RFX7 / RFU, GTPBP10 / Fold change vs veh, GTPBP10 / RFU, CNEP1R1 / Fold change vs veh, CNEP1R1 / RFU, BIVM-ERCC5 /// ERCC5 / Fold change vs veh, BIVM-ERCC5 /// ERCC5 / RFU, ILF3 / Fold change vs veh, ILF3 / RFU 11762660_at / Fold change /veh 11762660_at / RFU VCAN (11757783_s_at) / Fold change /veh VCAN (11757783_s_at) / RFU DDX43 (11728927_at) / Fold change /veh DDX43 (11728927_at) / RFU KRT8 (11758188_x_at) / Fold change /veh KRT8 (11758188_x_at) / RFU NKD1 (11759106_at) / Fold change /veh NKD1 (11759106_at) / RFU SRD5A1 (11742802_a_at) / Fold change /veh SRD5A1 (11742802_a_at) / RFU TPSAB1 /// TPSB2 (11721975_s_at) / Fold change /veh TPSAB1 /// TPSB2 (11721975_s_at) / RFU GSTM3 (11746129_a_at) / Fold change /veh GSTM3 (11746129_a_at) / RFU IL23R (11737362_x_at) / Fold change /veh IL23R (11737362_x_at) / RFU TMEM51 (11727254_a_at) / Fold change /veh TMEM51 (11727254_a_at) / RFU PIWIL2 (11732686_x_at) / Fold change /veh PIWIL2 (11732686_x_at) / RFU ORM1 (11744905_x_at) / Fold change /veh ORM1 (11744905_x_at) / RFU CCDC152 (11743942_at) / Fold change /veh CCDC152 (11743942_at) / RFU ECM1 (11717891_a_at) / Fold change /veh ECM1 (11717891_a_at) / RFU IL23R (11748794_a_at) / Fold change /veh IL23R (11748794_a_at) / RFU TNFAIP8L3 (11732012_x_at) / Fold change /veh TNFAIP8L3 (11732012_x_at) / RFU MBOAT4 (11741988_at) / Fold change /veh MBOAT4 (11741988_at) / RFU 11764193_at / Fold change /veh 11764193_at / RFU TMEM53 (11763286_at) / Fold change /veh TMEM53 (11763286_at) / RFU MAGEB2 (11727129_at) / Fold change /veh MAGEB2 (11727129_at) / RFU TMEM200A (11744735_a_at) / Fold change /veh TMEM200A (11744735_a_at) / RFU CCDC152 (11751479_a_at) / Fold change /veh CCDC152 (11751479_a_at) / RFU FAM211A (11726209_a_at) / Fold change /veh FAM211A (11726209_a_at) / RFU RGS16 (11746705_a_at) / Fold change /veh RGS16 (11746705_a_at) / RFU VCAN (11755009_s_at) / Fold change /veh VCAN (11755009_s_at) / RFU RHOB (11743442_s_at) / Fold change /veh RHOB (11743442_s_at) / RFU RGS16 (11720943_a_at) / Fold change /veh RGS16 (11720943_a_at) / RFU RGS16 (11720944_at) / Fold change /veh RGS16 (11720944_at) / RFU, VPS4B / Fold change vs veh, VPS4B / RFU, CREB1 / Fold change vs veh, CREB1 / RFU, DNAJC13 / Fold change vs veh, DNAJC13 / RFU, GNAQ / Fold change vs veh, GNAQ / RFU, CDK5R1 / Fold change vs veh, CDK5R1 / RFU, ZRANB3 / Fold change vs veh, ZRANB3 / RFU, CUL4A / Fold change vs veh, CUL4A / RFU, CCNY / Fold change vs veh, CCNY / RFU, UFL1 / Fold change vs veh, UFL1 / RFU, COG3 / Fold change vs veh, COG3 / RFU, DIAPH2 / Fold change vs veh, DIAPH2 / RFU, SKA2 / Fold change vs veh, SKA2 / RFU, AFF3 / Fold change vs veh, AFF3 / RFU, LMF1 / Fold change vs veh, LMF1 / RFU, IPO11 / Fold change vs veh, IPO11 / RFU, DFFB / Fold change vs veh, DFFB / RFU, FOXP1 / Fold change vs veh, FOXP1 / RFU, CARD8 / Fold change vs veh, CARD8 / RFU, STRN3 / Fold change vs veh, STRN3 / RFU, ADK / Fold change vs veh, ADK / RFU, RASSF2 / Fold change vs veh, RASSF2 / RFU, WIPF1 / Fold change vs veh, WIPF1 / RFU, LARP1B / Fold change vs veh, LARP1B / RFU, RASA1 / Fold change vs veh, RASA1 / RFU, RB1 / Fold change vs veh, RB1 / RFU, PPFIA1 / Fold change vs veh, PPFIA1 / RFU, MAT2A / Fold change vs veh, MAT2A / RFU, CCT5 / Fold change vs veh, CCT5 / RFU, WDR92 / Fold change vs veh, WDR92 / RFU, CUX1 / Fold change vs veh, CUX1 / RFU, TTC7A / Fold change vs veh, TTC7A / RFU, TMEM135 / Fold change vs veh, TMEM135 / RFU, DEPTOR / Fold change vs veh, DEPTOR / RFU, CPM / Fold change vs veh, CPM / RFU, DNAJB6 / Fold change vs veh, DNAJB6 / RFU, CACNA2D3 / Fold change vs veh, CACNA2D3 / RFU, DTX4 / Fold change vs veh, DTX4 / RFU, TFCP2 / Fold change vs veh, TFCP2 / RFU, GMCL1 /// GMCL1P1 / Fold change vs veh, GMCL1 /// GMCL1P1 / RFU, AEBP2 / Fold change vs veh, AEBP2 / RFU, SNHG1 /// SNORD22 /// SNORD25 /// SNORD26 /// SNORD27 /// SNORD28 /// SNORD29 /// SNORD31 / Fold change vs veh, SNHG1 /// SNORD22 /// SNORD25 /// SNORD26 /// SNORD27 /// SNORD28 /// SNORD29 /// SNORD31 / Fold change (Aza/veh), C12orf56 (ProbeSet 11735607_a_at) / Fold change (ACY-1035/veh), C12orf56 (ProbeSet 11735607_a_at) / Fold change (Aza/veh), FGFR1OP (ProbeSet 11751329_s_at) / Fold change (ACY-1035/veh), FGFR1OP (ProbeSet 11751329_s_at) / Fold change (Aza/veh), VPS36 (ProbeSet 11739960_a_at) / Fold change (ACY-1035/veh), VPS36 (ProbeSet 11739960_a_at) / RFU SYPL1 (11715823_x_at) / Fold change /veh SYPL1 (11715823_x_at) / RFU IGFBP7 (11715501_s_at) / Fold change /veh IGFBP7 (11715501_s_at) / RFU REEP3 (11722064_at) / Fold change /veh REEP3 (11722064_at) / RFU IGLL1 (11728026_x_at) / Fold change /veh IGLL1 (11728026_x_at): dose or concentration left out as unconfirmed
Conditions: ProbeSet 11750457_a_at; LIST B

Nc1ccc(-c2cccs2)cc1NC(=O)c1ccc2c(c1)cc(C1CC1)n2CCN1CCOCC1 [ACY-1035]
RFU, GTPBP10: 30.83 RFU
